Data reported in US12391679B2, “Benzamide-substituted bicyclic imidazo- and pyrazolo-fused -pyridine, -pyrimide, and -pyridazine compounds for treatment of inflammatory diseases” (ONCO3R Therapeutics BV, priority 2019, dated 2025).

What was measured:
[1] = target: T1, SIK1 (Homo sapiens, UniProt P57059); experiment: ADP-Glo kinase assay, SIK1; type: biochemical
T1 construct: purchased Carna Biosciences 02-131
Summary of the method: (§1)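 Luminescent ADP-formation read-out: enzyme–substrate mix + ATP, 120 min RT; ATP depletion 40 min RT; ADP→ATP conversion with luciferase/luciferin 30 min RT. Controls: 1% DMSO (negative), 10 μM staurosporine final (positive).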

[2] = test system: LPS-induced TNFα in monocytes; experiment: Monocytes assay: LPS-triggered TNFα (ELISA); type: cell-based, human; conditions: Homo sapiens, Monocyte, LPS-triggered TNFα inhibition
Summary of the method: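 CD14+ monocytes were magnetically isolated from human buffy-coat PBMCs, preincubated with compound 1 h at 37 °C (0.2% DMSO), then stimulated with LPS at 200 ng/mL for 4 h. Supernatant TNFα was measured by luminescent sandwich ELISA; percentage inhibition was calculated against controls for each concentration.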

[3] = target: T2, SIK2 (Homo sapiens, UniProt Q9H0K1); experiment: ADP-Glo kinase assay, SIK2; type: biochemical
T2 construct: purchased ThermoFisher Scientific PV4792
Summary of the method: as §1

T2 sequence (Q9H0K1 whole entry): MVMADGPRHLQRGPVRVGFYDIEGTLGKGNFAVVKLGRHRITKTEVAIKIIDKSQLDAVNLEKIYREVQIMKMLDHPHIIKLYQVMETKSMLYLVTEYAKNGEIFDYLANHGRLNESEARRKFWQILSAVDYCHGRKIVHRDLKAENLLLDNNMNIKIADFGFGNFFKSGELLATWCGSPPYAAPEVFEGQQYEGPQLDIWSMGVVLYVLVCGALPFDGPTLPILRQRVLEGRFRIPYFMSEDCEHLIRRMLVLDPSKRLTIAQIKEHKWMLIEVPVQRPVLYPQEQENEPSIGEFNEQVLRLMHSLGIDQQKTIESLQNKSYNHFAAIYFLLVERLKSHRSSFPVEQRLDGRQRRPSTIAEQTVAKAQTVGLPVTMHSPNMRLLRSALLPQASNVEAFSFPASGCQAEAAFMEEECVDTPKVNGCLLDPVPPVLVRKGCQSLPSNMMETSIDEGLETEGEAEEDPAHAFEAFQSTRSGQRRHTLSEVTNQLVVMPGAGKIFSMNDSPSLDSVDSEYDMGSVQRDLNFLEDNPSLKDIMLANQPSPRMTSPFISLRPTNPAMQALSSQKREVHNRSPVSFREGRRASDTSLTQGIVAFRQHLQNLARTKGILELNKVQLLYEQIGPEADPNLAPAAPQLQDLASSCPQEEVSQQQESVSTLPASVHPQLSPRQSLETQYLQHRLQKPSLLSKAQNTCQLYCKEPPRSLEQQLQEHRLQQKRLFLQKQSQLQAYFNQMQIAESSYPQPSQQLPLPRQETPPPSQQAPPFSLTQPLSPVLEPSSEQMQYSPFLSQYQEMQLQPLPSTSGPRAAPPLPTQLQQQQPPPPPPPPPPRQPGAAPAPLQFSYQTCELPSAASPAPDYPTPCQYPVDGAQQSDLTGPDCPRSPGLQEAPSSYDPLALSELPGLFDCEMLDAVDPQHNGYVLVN
T1 sequence (P57059 whole entry): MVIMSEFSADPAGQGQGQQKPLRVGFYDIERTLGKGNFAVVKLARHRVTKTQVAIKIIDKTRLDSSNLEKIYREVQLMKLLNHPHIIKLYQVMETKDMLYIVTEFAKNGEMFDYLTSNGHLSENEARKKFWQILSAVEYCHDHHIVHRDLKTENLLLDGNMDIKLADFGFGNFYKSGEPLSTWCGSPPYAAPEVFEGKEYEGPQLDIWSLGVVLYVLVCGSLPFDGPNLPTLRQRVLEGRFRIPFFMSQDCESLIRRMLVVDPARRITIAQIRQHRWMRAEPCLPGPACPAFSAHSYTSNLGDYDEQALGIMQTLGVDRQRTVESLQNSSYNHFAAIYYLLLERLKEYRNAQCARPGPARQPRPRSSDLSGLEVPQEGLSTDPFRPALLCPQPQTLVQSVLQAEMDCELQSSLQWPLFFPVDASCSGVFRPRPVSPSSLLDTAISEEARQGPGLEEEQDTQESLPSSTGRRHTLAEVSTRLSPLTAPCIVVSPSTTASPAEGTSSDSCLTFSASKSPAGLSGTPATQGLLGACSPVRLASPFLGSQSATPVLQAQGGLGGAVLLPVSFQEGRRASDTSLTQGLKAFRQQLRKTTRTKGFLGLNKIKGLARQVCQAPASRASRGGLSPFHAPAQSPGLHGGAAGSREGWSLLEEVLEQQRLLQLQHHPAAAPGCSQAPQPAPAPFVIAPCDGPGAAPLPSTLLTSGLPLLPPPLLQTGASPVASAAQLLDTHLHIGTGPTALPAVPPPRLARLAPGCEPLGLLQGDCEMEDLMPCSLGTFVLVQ

Row | Structure (SMILES) | IC50 [1] | EC50 [2] | IC50 [3]
1 | COc1cc(-c2cnc3cc(C4(C#N)CCOCC4)ccn23)cc(OC)c1C(=O)NCC(F)(F)F [Cpd 107, 4-[7-(4-cyanotetrahydropyran-4-yl)imidazo[1,2-a]pyridin-3-yl]-2,6-dimethoxy-N-(2,2,2-trifluoroethyl)benzamide] | > 500 nM | 100 to 1000 nM | > 500 nM
2 | COC(=O)C1(c2ccn3c(-c4cc(OC)c(C(=O)NC5CC5)c(OC(F)F)c4)cnc3c2)CC1 [Cpd 113, methyl 1-[3-[4-(cyclopropylcarbamoyl)-3-(difluoromethoxy)-5-methoxy-phenyl]imidazo[1,2-a]pyridin-7-yl]cyclopropanecarboxylate] | > 500 nM | 100 to 1000 nM | > 500 nM
3 | COc1cc(-c2cnc3cc(C4(C#N)CCOCC4)ccn23)cc(OC(F)F)c1C(=O)NC1CC1 [Cpd 116, 4-[7-(4-cyanotetrahydropyran-4-yl)imidazo[1,2-a]pyridin-3-yl]-N-cyclopropyl-2-(difluoromethoxy)-6-methoxy-benzamide] | > 500 nM | 100 to 1000 nM | > 500 nM
4 | COc1cc(-c2cnc3cc(C4(C#N)COC4)ccn23)cc(OC(F)F)c1C(=O)NC1CC1 [Cpd 117, 4-[7-(3-cyanooxetan-3-yl)imidazo[1,2-a]pyridin-3-yl]-N-cyclopropyl-2-(difluoromethoxy)-6-methoxy-benzamide] | > 500 nM | 100 to 1000 nM | > 500 nM
5 | COc1cc(-c2cnc3cc(C(C)(O)C(F)(F)F)ccn23)cc(OC(F)F)c1C(=O)NC1CC1 (stereo not drawn) [Cpd 129, N-cyclopropyl-2-(difluoromethoxy)-6-methoxy-4-[7-(2,2,2-trifluoro-1-hydroxy-1-methyl-ethyl)imidazo[1,2-a]pyridin-3-yl]benzamide] | > 500 nM | 100 to 1000 nM | > 500 nM
6 | COc1cc(-c2cnc3cc(C4(C#N)COC4)ccn23)cc(OC(F)F)c1C(=O)N[C@@H]1C[C@@H]1F [Cpd 130, 4-[7-(3-cyanooxetan-3-yl)imidazo[1,2-a]pyridin-3-yl]-2-(difluoromethoxy)-N-[(1R,2S)-2-fluorocyclopropyl]-6-methoxy-benzamide] | > 500 nM | 100 to 1000 nM | > 500 nM
7 | COc1cc(-c2cnc3cc(C(F)(F)CO)ccn23)cc(OC(F)F)c1C(=O)NC1CC1 [Cpd 136, N-cyclopropyl-4-[7-(1,1-difluoro-2-hydroxy-ethyl)imidazo[1,2-a]pyridin-3-yl]-2-(difluoromethoxy)-6-methoxy-benzamide] | > 500 nM | 100 to 1000 nM | 100 to 500 nM
8 | COc1cc(-c2cnc3cc(C(C)(O)C4CC4)ccn23)cc(OC(F)F)c1C(=O)NC1CC1 (stereo not drawn) [Cpd 138, N-cyclopropyl-4-[7-(1-cyclopropyl-1-hydroxy-ethyl)imidazo[1,2-a]pyridin-3-yl]-2-(difluoromethoxy)-6-methoxy-benzamide] | > 500 nM | 100 to 1000 nM | > 500 nM

Continued, values first:

Row | IC50 [1] | EC50 [2] | IC50 [3] | Structure (SMILES)
9 | > 500 nM | 100 to 1000 nM | > 500 nM | COc1cc(-c2cnc3cc(C4(C#N)CCOC4)ccn23)cc(OC(F)F)c1C(=O)NC1CC1 (stereo not drawn) [Cpd 123, 4-[7-(3-cyanotetrahydrofuran-3-yl)imidazo[1,2-a]pyridin-3-yl]-N-cyclopropyl-2-(difluoromethoxy)-6-methoxy-benzamide]
10 | > 500 nM | 100 to 1000 nM | > 500 nM | CCOC(C)(C)c1ccn2c(-c3cc(OC)c(C(=O)NC4CC4)c(OC(F)F)c3)cnc2c1 [Cpd 128, N-cyclopropyl-2-(difluoromethoxy)-4-[7-(1-ethoxy-1-methyl-ethyl)imidazo[1,2-a]pyridin-3-yl]-6-methoxy-benzamide]
11 | > 500 nM | 100 to 1000 nM | > 500 nM | CCC(C)(O)c1ccn2c(-c3cc(OC)c(C(=O)NC4CC4)c(OC(F)F)c3)cnc2c1 (stereo not drawn) [Cpd 137, N-cyclopropyl-2-(difluoromethoxy)-4-[7-(1-hydroxy-1-methyl-propyl)imidazo[1,2-a]pyridin-3-yl]-6-methoxy-benzamide]
